What was measured:
Type in all cases: biochemical
JAK1 = target: T1, JAK1 (Homo sapiens, UniProt P23458); assay: JAK1 inhibition (Table 4); conditions: read-out: JAK1 Ki
T1 construct: made in house; host or cells: SF9 insect cells (baculovirus)

JAK2 = target: T2, JAK2 (Homo sapiens, UniProt O60674); assay: JAK2 inhibition (Table 4); conditions: read-out: JAK2 Ki
T2 construct: made in house; host or cells: SF9 insect cells (baculovirus)

TYK2 = target: T3, TYK2 (Homo sapiens, UniProt P29597); assay: TYK2 inhibition (Table 4)
T3 construct: made in house; host or cells: SF9 insect cells (baculovirus)
T3 sequence (P29597 873-1187): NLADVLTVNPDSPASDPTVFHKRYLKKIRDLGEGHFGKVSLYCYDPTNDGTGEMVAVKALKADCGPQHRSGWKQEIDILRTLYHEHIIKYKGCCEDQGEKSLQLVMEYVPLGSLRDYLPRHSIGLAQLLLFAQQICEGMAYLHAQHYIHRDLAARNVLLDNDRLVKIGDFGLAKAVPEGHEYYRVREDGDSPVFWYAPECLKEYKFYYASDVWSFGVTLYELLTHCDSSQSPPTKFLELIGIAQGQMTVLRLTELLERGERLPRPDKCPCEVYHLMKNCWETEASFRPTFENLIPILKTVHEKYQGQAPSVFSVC

JAK3 = target: T4, JAK3 (Homo sapiens, UniProt P52333); assay: JAK3 inhibition (Table 4); conditions: read-out: JAK3 Ki
T4 construct: made in house; host or cells: SF9 insect cells (baculovirus)
T4 sequence (P52333 783-1124): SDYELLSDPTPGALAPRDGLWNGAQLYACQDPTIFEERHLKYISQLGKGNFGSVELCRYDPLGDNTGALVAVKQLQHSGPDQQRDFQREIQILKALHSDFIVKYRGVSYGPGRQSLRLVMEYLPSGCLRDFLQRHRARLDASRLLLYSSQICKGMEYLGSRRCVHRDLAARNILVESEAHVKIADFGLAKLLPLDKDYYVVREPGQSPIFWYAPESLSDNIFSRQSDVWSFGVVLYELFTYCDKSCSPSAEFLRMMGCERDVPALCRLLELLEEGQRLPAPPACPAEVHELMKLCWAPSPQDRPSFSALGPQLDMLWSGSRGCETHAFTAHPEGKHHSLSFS

T1 sequence (P23458 852-1154): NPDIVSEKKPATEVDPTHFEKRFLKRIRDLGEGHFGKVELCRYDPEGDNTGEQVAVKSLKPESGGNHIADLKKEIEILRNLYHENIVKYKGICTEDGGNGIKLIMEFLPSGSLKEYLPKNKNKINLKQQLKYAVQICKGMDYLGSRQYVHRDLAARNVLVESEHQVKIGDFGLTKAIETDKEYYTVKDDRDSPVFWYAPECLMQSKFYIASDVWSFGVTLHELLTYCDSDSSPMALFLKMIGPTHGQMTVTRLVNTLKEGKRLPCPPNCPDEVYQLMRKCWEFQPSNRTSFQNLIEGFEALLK
T2 sequence (O60674 812-1132): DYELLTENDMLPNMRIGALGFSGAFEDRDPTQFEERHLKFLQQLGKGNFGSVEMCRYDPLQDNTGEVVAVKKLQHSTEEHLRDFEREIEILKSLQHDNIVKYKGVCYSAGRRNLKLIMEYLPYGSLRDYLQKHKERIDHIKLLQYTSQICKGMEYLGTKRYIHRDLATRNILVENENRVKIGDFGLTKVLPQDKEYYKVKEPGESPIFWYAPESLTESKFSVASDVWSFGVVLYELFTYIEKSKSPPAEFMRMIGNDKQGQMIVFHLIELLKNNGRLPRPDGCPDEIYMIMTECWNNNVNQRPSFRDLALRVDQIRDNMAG

| SMILES | Ki (JAK1) | Ki (JAK2) | Ki (TYK2) | Ki (JAK3) |
| --- | --- | --- | --- | --- |
| CCN1CCCC[C@H]1C(=O)N1CCC(n2cnc3cnc4[nH]ccc4c32)CC1 [Example 949, ((S)-1-Ethyl-piperidin-2-yl)-[4-(6H-1,3,5,6-tetraaza-as-indacen-1-yl)-piperidin-1-yl]-methanone] | 0.0441 µM | 0.515 µM | 1.79 µM | – |
| CC(C)(C)OC(=O)N1CCC(n2c(C#N)nc3cnc4[nH]ccc4c32)CC1 [Example 169, 4-(2-Cyano-6H-1,2,3,5,6-tetraaza-as-indacen-1-yl)-piperidine-1-carboxylic acid tert-butyl ester] | 0.292 µM | 0.186 µM | 2.93 µM | – |
| N#Cc1cccc(CC(=O)N2CC[C@@H](n3cnc4cnc5[nH]ccc5c43)C2)c1 [Example 189, 3-{2-oxo-2-[(R)-3-(6H-1,2,3,5,6-tetraaza-as-indacen-1-yl)-pyrrolidin-1-yl]-ethyl}-benzonitrile] | 0.0896 µM | 0.362 µM | 1.41 µM | – |
| C[C@@H](O)c1nc2cnc3[nH]ccc3c2n1C1CCN(CC(=O)N2CCOCC2)CC1 [Example 870, 2-{4-[2-((R)-1-Hydroxy-ethyl)-6H-1,3,5,6-tetraaza-as-indacen-1-yl]-piperidin-1-yl}-1-morpholin-4-yl-ethanone] | 0.267 µM | 1.44 µM | – | 1.37 µM |
| Cc1nn(C)cc1CN1CCC(n2c([C@@H](C)O)nc3cnc4[nH]ccc4c32)CC1 [Example 828, (R)-1-{1-[1-(1,3-Dimethyl-1H-pyrazol-4-ylmethyl)-piperidin-4-yl]-1,6-dihydro-1,3,5,6-tetraaza-as-indacen-2-yl}-ethanol] | 0.0905 µM | 1.67 µM | – | 0.949 µM |
| CCn1cc(CN2CCC(n3c([C@@H](C)O)nc4cnc5[nH]ccc5c43)CC2)c(C)n1 [Example 829, (R)-1-{1-[1-(1-Ethyl-3-methyl-1H-pyrazol-4-ylmethyl)-piperidin-4-yl]-1,6-dihydro-1,3,5,6-tetraaza-as-indacen-2-yl}-ethanol] | 0.0943 µM | 0.939 µM | – | 1.32 µM |
| OC[C@H](O)c1nc2cnc3[nH]ccc3c2n1C1CCCCC1 [Example 858, (R)-1-(1-Cyclohexyl-1,6-dihydro-1,3,5,6-tetraaza-as-indacen-2-yl)-ethane-1,2-diol] | 0.00777 µM | – | 0.0198 µM | 0.0524 µM |
| CN(C)CC(=O)N1CC[C@@H](n2cnc3cnc4[nH]ccc4c32)C1 [Example 429, 2-Dimethylamino-1-[(R)-3-(6H-1,3,5,6-tetraaza-as-indacen-1-yl)-pyrrolidin-1-yl]-ethanone] | 0.211 µM | 0.894 µM | 2.23 µM | – |
| N#Cc1ccc(S(=O)(=O)N2CC[C@@H](n3cnc4cnc5[nH]ccc5c43)C2)cc1 [Example 433, 4-[(R)-3-(6H-1,3,5,6-Tetraaza-as-indacen-1-yl)-pyrrolidine-1-sulfonyl]-benzonitrile] | 0.0224 µM | 0.0876 µM | 0.293 µM | – |
| c1cc2c(ncc3nc(C4CCCN4)n(C4CCCOC4)c32)[nH]1 (single isomer, unassigned) [Example 665] | 0.432 µM | 1.8 µM | – | 1.78 µM |
| c1cc(N2CCC[C@@H](n3cnc4cnc5[nH]ccc5c43)C2)ccn1 [Example 13, (R)-1-(3,4,5,6-Tetrahydro-2H-[1,4]bipyridinyl-3-yl)-1,6-dihydro-1,2,3,5,6-tetraaza-as-indacene] | 0.179 µM | 0.898 µM | – | 1.84 µM |
| OC[C@@H](O)c1nc2cnc3[nH]ccc3c2n1C1CCCCC1 [Example 688, (S)-1-(1-Cyclohexyl-1,6-dihydro-1,2,3,5,6-tetraaza-as-indacen-2-yl)-ethane-1,2-diol] | 0.00177 µM | – | 0.0047 µM | 0.0161 µM |
| CC(C)(O)c1nc2cnc3[nH]ccc3c2n1C1CCN(Cc2ccccc2)CC1 [Example 171, 2-[1-(1-Benzyl-piperidin-4-yl)-1,6-dihydro-1,2,3,5,6-tetraaza-as-indacen-2-yl]-propan-2-ol] | 0.0499 µM | 0.241 µM | – | 0.103 µM |
| CC(=O)N1CCC(n2c(C(F)(F)CN)nc3cnc4[nH]ccc4c32)CC1 [Example 139, 1-{4-[2-(2-Amino-1,1-difluoro-ethyl)-6H-1,2,3,5,6-tetraaza-as-indacen-1-yl]-piperidin-1-yl}-ethanone] | 0.339 µM | 0.93 µM | – | 1.45 µM |
| Cc1nc(S(=O)(=O)N2CCC(n3cnc4cnc5[nH]ccc5c43)CC2)cn1C [Example 444, 1-[1-(1,2-Dimethyl-1H-imidazole-4-sulfonyl)-piperidin-4-yl]-1,6-dihydro-1,3,5,6-tetraaza-as-indacene] | 0.481 µM | 0.37 µM | 3.42 µM | – |
| CN(C(=O)Cc1nc2cnc3[nH]ccc3c2n1C1CCNCC1)C1CCCC1 [Example 257, N-Cyclopentyl-N-methyl-2-(1-piperidin-4-yl-1,6-dihydro-1,3,5,6-tetraaza-as-indacen-2-yl)-acetamide] | 0.2 µM | – | 3.43 µM | 0.397 µM |
| COCC(=O)NC1CCCC(n2cnc3cnc4[nH]ccc4c32)C1 (single isomer, unassigned) [Example 483, 2-Methoxy-N-[3-(6H-1,3,5,6-tetraaza-as-indacen-1-yl)-cyclohexyl]-acetamide] | 0.472 µM | 0.832 µM | – | 0.613 µM |
| c1cncc(-c2nc3cnc4[nH]ccc4c3n2C2CCNCC2)c1 [Example 153, 1-Piperidin-4-yl-2-pyridin-3-yl-1,6-dihydro-1,2,3,5,6-tetraaza-as-indacene] | 0.181 µM | 0.587 µM | – | 0.784 µM |
| CC(C)N1CCC(n2nnc3cnc4[nH]ccc4c32)CC1 [Example 548, 1-(1-Isopropyl-piperidin-4-yl)-1,6-dihydro-1,2,3,5,6-pentaaza-as-indacene] | 0.223 µM | 0.484 µM | 2.79 µM | – |
| CN1CCN(CC(=O)N2CCC(n3cnc4cnc5[nH]ccc5c43)CC2)CC1 [Example 193, 2-(4-Methyl-piperazin-1-yl)-1-[4-(6H-1,2,3,5,6-tetraaza-as-indacen-1-yl)-piperidin-1-yl]-ethanone] | 0.111 µM | 0.697 µM | 3.15 µM | – |
| Cc1nc2cnc3[nH]ccc3c2n1C1CCN(C(=O)[C@@H]2CCCN2C)CC1 [Example 285] | 0.0518 µM | 0.402 µM | 2.41 µM | – |
| CC(C)(C)OC(=O)N1CCC(n2c(NCCO)nc3cnc4[nH]ccc4c32)CC1 [Example 654, 4-[(2-Hydroxy-ethylamino)-6H-1,2,3,5,6-tetraaza-as-indacen-1-yl]-piperidine-1-carboxylic acid tert-butyl ester] | 0.453 µM | 0.763 µM | – | 2.09 µM |
| O=C([C@@H]1CCCN1C1CCC1)N1CCC(n2cnc3cnc4[nH]ccc4c32)CC1 [Example 147, ((S)-1-Cyclobutyl-pyrrolidin-2-yl)-[4-(6H-1,2,3,5,6-tetraaza-as-indacen-1-yl)-piperidin-1-yl]-methanone] | 0.0653 µM | 0.596 µM | 1.53 µM | – |
| O=C([C@@H]1CCCCN1C1COC1)N1CCC(n2cnc3cnc4[nH]ccc4c32)CC1 [Example 951, ((S)-1-Oxetan-3-yl-piperidin-2-yl)-[4-(6H-1,3,5,6-tetraaza-as-indacen-1-yl)-piperidin-1-yl]-methanone] | 0.141 µM | 0.48 µM | 2.88 µM | – |
| c1ccc(CN2CCC(n3c(CN4CCOCC4)nc4cnc5[nH]ccc5c43)CC2)cc1 [Example 155, 1-(1-Benzyl-piperidin-4-yl)-2-morpholin-4-ylmethyl-1,6-dihydro-1,2,3,5,6-tetraaza-as-indacene] | 0.12 µM | 0.452 µM | – | 0.304 µM |
| CC(C)(C)OC(=O)N1CCCC[C@H]1CN[C@H]1CC[C@H](n2cnc3cnc4[nH]ccc4c32)CC1 [Example 564, trans (S)-2-{[4-(6H-1,3,5,6-Tetraaza-as-indacen-1-yl)-cyclohexylamino]-methyl}-piperidine-1-carboxylic acid tert-butyl ester] | 0.112 µM | 0.71 µM | – | 2.65 µM |
| Cc1nc(CN2CCC(n3c([C@@H](C)O)nc4cnc5[nH]ccc5c43)CC2)n(C)c1C [Example 827, (R)-1-{1-[1-(1,4,5-Trimethyl-1H-imidazol-2-ylmethyl)-piperidin-4-yl]-1,6-dihydro-1,3,5,6-tetraaza-as-indacen-2-yl}-ethanol] | 0.0739 µM | 1.72 µM | – | 1.46 µM |
| CC(C)n1cc(CN2CCC(n3c([C@@H](C)O)nc4cnc5[nH]ccc5c43)CC2)cn1 [Example 824, (R)-1-{1-[1-(1-Isopropyl-1H-pyrazol-4-ylmethyl)-piperidin-4-yl]-1,6-dihydro-1,3,5,6-tetraaza-as-indacen-2-yl}-ethanol] | 0.0245 µM | 1.21 µM | – | 0.6 µM |
| CC(C)(C#N)c1nc2cnc3[nH]ccc3c2n1C1CCN(Cc2cnccn2)CC1 [Example 164, 2-Methyl-2-[1-(1-pyrazin-2-ylmethyl-piperidin-4-yl)-1,6-dihydro-1,2,3,5,6-tetraaza-as-indacen-2-yl]-propionitrile] | 0.0528 µM | 0.129 µM | – | 0.0571 µM |
| COCCNc1nc2cnc3[nH]ccc3c2n1C1CCNCC1 [Example 657, (2-Methoxy-ethyl)-(1-piperidin-4-yl-1,6-dihydro-1,2,3,5,6-tetraaza-as-indacen-2-yl)-amine] | 0.0291 µM | 1.28 µM | – | 0.668 µM |
